# According to patent US12421222B2 (AUGUSTINE THERAPEUTICS, priority 2021, dated 2025):
# Tested on: acetylated tubulin (Lys40) in HeLa cells
# Experiment: Acetylated α-tubulin measurement in vitro (immunocytochemistry)
# Format: cell-based
# Conditions: Homo sapiens, 6 hours incubation, acetylated tubulin (Lys40) by immunocytochemistry, read-out: IC50 (Tubulin deacetylation)
# Summary of the method: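 HeLa cells in serum-free medium treated 6 h at 37 °C (final DMSO 0.1–0.4%), then PFA-fixed and immunostained for acetyl-Lys40 and total α-tubulin; high-content imaging.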
row,IC50 [nM],SMILES
1,100 to 500,"COc1cnc2nc(C)nc(SCC(=O)c3ccc(CNC(=O)OC(C)(C)C)s3)c2c1 [Example 190, tert-butyl ((5-(2-((6-methoxy-2-methylpyrido[2,3-d]pyrimidin-4-yl)thio)acetyl)thiophen-2-yl)methyl)carbamate]"
2,100 to 500,"C[C@H](NC(=O)CO)c1ccc(C(=O)CSc2nc(C(F)(F)F)nc3c2cnn3C)s1 [Example 130, (S)-2-hydroxy-N-(1-(5-(2-((1-methyl-6-(trifluoromethyl)-1H-pyrazolo[3,4-d]pyrimidin-4-yl)thio)acetyl)thiophen-2-yl)ethyl)acetamide]"
3,100 to 500,"Cn1cc2c(SCC(=O)c3ccc(CNC(=O)CO)s3)nc(C(F)F)nc2n1 [Example 69, N-((5-(2-((6-(difluoromethyl)-2-methyl-2H-pyrazolo[3,4-d]pyrimidin-4-yl)thio)acetyl)thiophen-2-yl)methyl)-2-hydroxyacetamide]"
4,100 to 500,"Cc1nc(SCC(=O)c2ccc(CNC(=O)CO)s2)c2cc(C3CC3)ccc2n1 [Example 106, N-((5-(2-((6-cyclopropyl-2-methylquinazolin-4-yl)thio)acetyl)thiophen-2-yl)methyl)-2-hydroxyacetamide]"
5,1000 to 3330,"CS(=O)(=O)NCCc1ccc(C(=O)CSc2nc(C(F)(F)F)nc3ccccc23)s1 [Example 98, N-(2-(5-(2-((2-(trifluoromethyl)quinazolin-4-yl)thio)acetyl)thiophen-2-yl)ethyl)methanesulfonamide]"
6,≤ 100,"COCCn1ncc2c(SCC(=O)c3ccc(CNC(=O)CO)s3)nc(C(F)(F)F)nc21 [Example 125, 2-hydroxy-N-((5-(2-((1-(2-methoxyethyl)-6-(trifluoromethyl)-1H-pyrazolo[3,4-d]pyrimidin-4-yl)thio)acetyl)thiophen-2-yl)methyl)acetamide]"
7,100 to 500,"Cc1nc(SCC(=O)c2ccc(CNC(=O)CO)s2)c2ccc(F)cc2n1 [Example 68, N-((5-(2-((7-fluoro-2-methylquinazolin-4-yl)thio)acetyl)thiophen-2-yl)methyl)-2-hydroxyacetamide]"
8,≤ 100,"Cc1nc(SCC(=O)c2ccc(CNC(=O)CO)s2)c2cc(Cl)cc(F)c2n1 [Example 142, N-((5-(2-((6-chloro-8-fluoro-2-methylquinazolin-4-yl)thio)acetyl)thiophen-2-yl)methyl)-2-hydroxyacetamide]"
9,100 to 500,"Cc1nc(SCC(=O)c2ccc(CNC(=O)C3CC3(F)F)s2)c2cc(OC(F)(F)F)ccc2n1 (stereo not shown) [Example 120, 2,2-difluoro-N-((5-(2-((2-methyl-6-(trifluoromethoxy)quinazolin-4-yl)thio)acetyl)thiophen-2-yl)methyl)cyclopropane-1-carboxamide]"
10,≤ 100,"COc1cnc2nc(C(F)F)nc(SCC(=O)c3ccc(CNC(=O)CO)s3)c2c1 [Example 164, N-((5-(2-((2-(difluoromethyl)-6-methoxypyrido[2,3-d]pyrimidin-4-yl)thio)acetyl)thiophen-2-yl)methyl)-2-hydroxyacetamide]"
11,100 to 500,"COc1ccc2nc(C)nc(SCC(=O)c3ccc(CN(C)C(=O)CO)s3)c2c1 [Example 109, 2-hydroxy-N-((5-(2-((6-methoxy-2-methylquinazolin-4-yl)thio)acetyl)thiophen-2-yl)methyl)-N-methylacetamide]"
12,≤ 100,"O=C(CO)NCc1ccc(C(=O)CSc2nc3nc(C(F)(F)F)ccc3o2)s1 [Example 72, 2-hydroxy-N-((5-(2-((5-(trifluoromethyl)oxazolo[4,5-b]156yrrolid-2-yl)thio)acetyl)thiophen-2-yl)methyl)acetamide]"
13,≤ 100,"Cc1nc(SCC(=O)c2ccc(CNC(=O)CO)s2)c2cc(C(F)(F)F)cnc2n1 [Example 119, 2-hydroxy-N-((5-(2-((2-methyl-6-(trifluoromethyl)pyrido[2,3-d]pyrimidin-4-yl)thio)acetyl)thiophen-2-yl)methyl)acetamide]"
14,1000 to 3330,"Cn1ncc2c(SCC(=O)c3ncc(CNC(=O)C(C)(C)C)s3)ncnc21 [Example 27, N-((2-(2-((1-methyl-1H-pyrazolo[3,4-d]pyrimidin-4-yl)thio)acetyl)thiazol-5-yl)methyl)pivalamide]"
15,100 to 500,"COc1cnc2nc(C)nc(SCC(=O)c3ccc(CN4CCOCC4=O)s3)c2c1 [Example 161, 4-((5-(2-((6-methoxy-2-methylpyrido[2,3-d]pyrimidin-4-yl)thio)acetyl)thiophen-2-yl)methyl)morpholin-3-one]"
16,100 to 500,"COc1ccc2nc(C)nc(SCC(=O)c3ccc(CNC(=O)CO)s3)c2c1 [Example 60, 2-Hydroxy-N-((5-(2-((6-methoxy-2-methylquinazolin-4-yl)thio)acetyl)thiophen-2-yl)methyl)acetamide]"
17,≤ 100,"COCCn1cc2c(SCC(=O)c3ccc(CNC(=O)CO)s3)nc(C(F)(F)F)nc2n1 [Example 132, 2-hydroxy-N-((5-(2-((2-(2-methoxyethyl)-6-(trifluoromethyl)-2H-pyrazolo[3,4-d]pyrimidin-4-yl)thio)acetyl)thiophen-2-yl)methyl)acetamide]"
18,100 to 500,"Cn1cc2c(SCC(=O)c3ccc(CNC(=O)C(C)(C)C)s3)nc(C(F)(F)F)nc2n1 [Example 22, N-((5-(2-((2-methyl-6-(trifluoromethyl)-2H-pyrazolo[3,4-d]pyrimidin-4-yl)thio)acetyl)thiophen-2-yl)methyl)pivalamide]"
19,100 to 500,"Cn1cc2c(SCC(=O)c3ccc(CNC(=O)C4(O)CC4)s3)nc(C(F)(F)F)nc2n1 [Example 49, 1-hydroxy-N-((5-(2-((2-methyl-6-(trifluoromethyl)-2H-pyrazolo[3,4-d]pyrimidin-4-yl)thio)acetyl)thiophen-2-yl)methyl)cyclopropane-1-carboxamide]"
20,≤ 100,"COc1cc2c(SCC(=O)c3ccc(CNC(=O)CO)s3)nc(C)nc2cn1 [Example 121, 2-hydroxy-N-((5-(2-((6-methoxy-2-methylpyrido[3,4-d]pyrimidin-4-yl)thio)acetyl)thiophen-2-yl)methyl)acetamide]"
21,≤ 100,"Cc1nc(SCC(=O)c2ccc(CNC(=O)CO)s2)c2cccnc2n1 [Example 64, 2-hydroxy-N-((5-(2-((2-methylpyrido[2,3-d]pyrimidin-4-yl)thio)acetyl)thiophen-2-yl)methyl)acetamide]"
22,≤ 100,"COc1cc(C(F)(F)F)cc2c(SCC(=O)c3ccc(CNC(=O)CO)s3)nc(C)nc12 [Example 148, 2-hydroxy-N-((5-(2-((8-methoxy-2-methyl-6-(trifluoromethyl)quinazolin-4-yl)thio)acetyl)thiophen-2-yl)methyl)acetamide]"
23,≤ 100,"Cc1nc(SCC(=O)c2ccc(CNC(=O)CO)s2)c2ncccc2n1 [Example 153, 2-hydroxy-N-((5-(2-((2-methylpyrido[3,2-d]pyrimidin-4-yl)thio)acetyl)thiophen-2-yl)methyl)acetamide]"
24,100 to 500,"Cn1ncc2c(SCC(=O)c3ccc(CNC(=O)CO)s3)ncnc21 [Example 59, 2-hydroxy-N-((5-(2-((1-methyl-1H-pyrazolo[3,4-d]pyrimidin-4-yl)thio)acetyl)thiophen-2-yl)methyl)acetamide]"
25,100 to 500,"CCS(=O)(=O)NCc1ccc(C(=O)CSc2nc(C(F)(F)F)nc3ncccc23)s1 [Example 127, N-((5-(2-((2-(trifluoromethyl)pyrido[2,3-d]pyrimidin-4-yl)thio)acetyl)thiophen-2-yl)methyl)ethanesulfonamide]"
